The values that follow come from patent US8653071B2, “α4β2 neuronal nicotinic acetylcholine receptor ligands” (Suven Life Sciences Limited, priority 2009, dated 2014).

Data set [1] addresses Nicotinic Acetylcholine α4β2 Receptor (UniProt P09483+P12390). The data set can be described thus: Binding assay for human or rat nicotinic acetylcholine α4β2 receptor ([3H]Cytisine displacement). As to conditions: [3H]Cytisine 2.5 nM; rat brain frontal cortex or recombinant human receptor in CHO cells (not specified which); read-out: Ki.
The test system of data set [2] is Male Sprague Dawley rats. As to the kind of experiment: Effect of test compounds on body weight gain in high fat fed rats. It is filed as in vivo, rat. As to conditions: oral for 14 days, high fat diet fed rats. From the text:
Effect of Test Compounds on Body Weight Gain in High Fat Fed Rats
The body weight gain suppressing properties of compounds of this invention were studied using a animal model of obesity.
Male Sprague Dawley rats (150-160 grams) obtained from Reliance Life Sciences, India were used as experimental animals. Rats were fed with control diet (normal pellet diet) and lard based high fat diet (45% kcal diet) for 7-8 weeks. High fat diet fed animals was randomized according to their body weights. The animals were housed in a group of 3-4 per cage. One group of 10 rats received vehicle (2 mL/Kg) orally and another set of animals received compound of the formula (I) orally for 14 days. Body weight of the animals was recorded for first three consecutive days then it was recorded twice weekly. Weighed amount of food was given to the animals and food intake was recorded every 24 hour for the entire study period.

A short description of data set [3]: in vivo. Particulars: male, Wistar, rat, po, 15 mg/kg.
Experimental: Rodent Brain Penetration Study
Three animals were housed in each cage. Animals were given water and food ad libitum throughout the experiment, and maintained on a 12 hours light/dark cycle.
NCE compound was dissolved in water and administered orally. At Tmax (0.5, 1.0 and 2.0) animals were sacrificed to collect the plasma and brain tissue and were homogenized. Plasma and Brain was stored frozen at −20° C. until analysis. The concentrations of the NCE compound in plasma and Brain were determined using LC-MS/MS method.
The NCE compounds were quantified in plasma and brain homogenate by validated LC-MS/MS method using solid phase extraction technique. NCE compounds were quantified in the calibration range of 1-500 ng/mL in plasma and brain homogenate. Study samples were analyzed using calibration samples in the batch and quality control samples spread across the batch. Extents of brain-blood ratio were calculated (Cb/Cp).
Data set [4] deals with Male Wister rats. As to the kind of experiment: Object recognition task model. Format: in vivo, rat. As to conditions: 1 mg/kg, p.o. As for the experimental part:
Object Recognition Task Model
The cognition-enhancing properties of compounds of this invention were estimated using a model of animal cognition: the object recognition task model.
Male Wister rats (230-280 grams) obtained from N. I. N. (National Institute of Nutrition, Hyderabad, India) was used as experimental animals. Four animals were housed in each cage. […] Also the rats were habituated to individual arenas for 1 hour in the absence of any objects.
One group of 12 rats received vehicle (1 mL/Kg) orally and another set of animals received compound of the formula (I) either orally or i.p., before one hour of the familiar (T1) and choice trial (T2).
The experiment was carried out in a 50×50×50 cm open field made up of acrylic. In the familiarization phase, (T1), the rats were placed individually in the open field for 3 minutes, in which two identical objects (plastic bottles, 12.5 cm height×5.5 cm diameter) covered in yellow masking tape alone (a1 and a2) were positioned in two adjacent corners, 10 cm. from the walls. After 24 hours of the (T1) trial for long-term memory test, the same rats were placed in the same arena as they were placed in T1 trial. Choice phase (T2) rats were allowed to explore the open field for 3 minutes in presence of one familiar object (a3) and one novel object (b) (Amber color glass bottle, 12 cm high and 5 cm in diameter). Familiar objects presented similar textures, colors and sizes. During the T1 and T2 trial, explorations of each object (defined as sniffing, licking, chewing or having moving vibrissae whilst directing the nose towards the object at a distance of less than 1 cm) were recorded separately by stopwatch. Sitting on an object was not regarded as exploratory activity, however, it was rarely observed.
T1 is the total time spent exploring the familiar objects (a1+a2).
T2 is the total time spent exploring the familiar object and novel object (a3+b).
The object recognition test was performed as described by Ennaceur, A., Delacour, J., 1988, A new one-trial test for neurobiological studies of memory in rats—Behavioural data, Behav. Brain Res., 31, 47-59.

Data set [5] has as its system Male Sprague Dawley rats. The data set can be described thus: DRL-72s model of animal depression. It is filed as in vivo. As to conditions: p.o.; rat. As to the method:
The antidepressant properties of compounds of this invention were evaluated using a model of animal depression: the DRL-72s model. Male Sprague Dawley rats were used as experimental animals. Rats are trained to lever press for a 4″ access to 0.025 ml of water for each correct response during daily 60 minute sessions. All testing takes place on weekdays only. At the beginning of each session, the house light is illuminated and remains lit until the session ends. No other stimuli are presented during testing. After successful lever press training, rats are then required to respond under a DRL-24 second schedule, where only lever presses that are separated by 24 seconds are reinforced. Upon stable responding on a DRL-24 second schedule (5-10 sessions), rats are trained on a DRL-72 second schedule until responding stabilizes at approximately 15% efficiency (approx 25-35 sessions). Specifically, rats receive a reinforcer for each response that is emitted at least 72 seconds after the previous response (IRT). […] Efficiency is recorded as number of reinforced responses÷total number of responses. After stable baseline responding is achieved, defined as responding for 4 consecutive sessions with no more than 10% variability, animals begin drug testing. Animals receive drug no more than 1× per week.

A short description of data set [6]: Rodent pharmacokinetic study. Format: in vivo. As to conditions: Wistar, in vivo, Wister rat/Male. Summed up: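 Rats, fasted overnight, received NCE orally (15 or 5 mg/kg) and intravenously (5 mg/kg) on day 0 and day 2. Jugular blood sampled pre-dose to 24 h (n=3); plasma NCE measured by LC-MS/MS. Cmax, Tmax, AUCt, T1/2 and bioavailability derived by non-compartmental analysis.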

For the molecule `CNCC1CC2CC2N1c1cccnc1.Cl` (centres unmarked) [Example 4, N-[2-(Pyridin-3-yl)-2-azabicyclo[3.1.0]hex-3-ylmethyl]methylamine hydrochloride], the Ki (usually a dissociation constant, usually derived from enzyme kinetics or from competition with a known ligand) in data set [1] was found to be 59.4 nM. For the same molecule, the Inference entry in data set [2] is given as “Active”. For the same molecule, the “% Reduction in body weight gain compared to vehicle (Day 14)” value in data set [2] (Day 14) was determined as 3.3%. The molecule also registered a Kp in data set [3] of 11.7 ± 2.66. For the same molecule, in data set [4], the Inference result is “Active”. In data set [4] (choice trial), the “Exploration time mean ± S.E.M, Familiar object” value turned out to be 7.64 ± 1.052 s and the “Exploration time mean ± S.E.M, Novel object” value was 14.21 ± 2.364 s. The “Dose (DRL-72s)” value in data set [5] was “≧10 mg/kg, p.o”. In data set [6] (5 mg/kg, Intravenous), the AUC(0-t) – broadly, the area under the concentration-time curve up to a stated or last time point – was found to be 1670 ± 154 ng·h/mL; the Cmax (as a rule, the maximum level reached in the sampled fluid or tissue) came out at 956 ± 164 ng/mL; the Tmax (as a rule, the time from dosing to the highest level) was 0.08 h; the half-life – broadly, the time needed for the level to fall by half in the phase considered – is 5.82 ± 0.53 h. In data set [6] (15 mg/kg Per-Oral vs 5 mg/kg Intravenous), the bioavailability came to 105 ± 9%. In data set [6] (15 mg/kg, Per-Oral), the AUC(0-t) was 5280 ± 652 ng·h/mL, the Cmax came out at 1560 ± 294 ng/mL, the Tmax amounted to 0.33 ± 0.14 h and the half-life was 4.48 ± 0.76 h.
